Reference: patent US20070020196A1, “Inhalant formulation containing sulfoalkyl ether cyclodextrin and corticosteroid prepared from a unit dose suspension” (priority 2003, published 2007)
Values after ≈ are worked out from the molar mass of the structure shown.

Columns and labels:
[1] = Molar ratio SAE-CD:corticosteroid at saturated solubility (phase solubility binding study); format: physicochemical
physchem = details: thermodynamic from solid
[2] = Solubility of selected steroids enhanced by cyclodextrins (phase solubility); details: thermodynamic from solid
[3] = Stability of budesonide R- and S-isomers with and without SBE7-β-CD (Example 13); format: physicochemical
Protocol: The inventors have also discovered that SAE-CD is capable of stabilizing the isomers of budesonide to different extents. A study to determine if SBE7-β-CD stabilized budesonide solutions and if it preferentially stabilized one isomer was conducted according to Example 13. FIG. 11 is a semi-log plot of the % of initial concentration at each time point for the samples stored at 60 ° C. Loss of budesonide was first order at each temperature.
Solutions of budesonide with and without SBE7-β-CD were prepared at two different pHs (4 and 6) and stored at 2 different temperatures (60° C. and 80° C.). Citrate buffers (50 mM) at each pH value were prepared by mixing differing portions of 50 mM citric acid and 50 mM sodium citrate (tribasic, dihydrate) solutions. To achieve a concentration of budesonide in the buffers without SBE7-β-CD sufficient for accurate measurement, the budesonide was dissolved first in 100% ethyl alcohol. An aliquot of the ethanol/budesonide solution was then added drop-wise with stirring to each buffer solution. The theoretical budesonide concentration was 100 μg/mL with a final ethanolic content of 5% in each buffer. All solution preps and procedures involving budesonide were done in a darkened room under red light. After shaking solutions for 24 hours, both buffer solutions were filtered through Millipore Millex-GV 0.22 μm syringe filters to remove any solid that had precipitated (no significant amounts observed) from the solutions. The final budesonide concentration was about 50 μg/mL. Both the pH 4 and 6 solutions were split in two, and solid SBE7-β-CD was added to one of the portions to create solutions with and without 1% w/v SBE7-β-CD at each pH. Each solution was aliquoted into individual amber vials. They were then placed in ovens at 60° C. and 80° C. Sample vials were removed from the ovens and analyzed by HPLC at 0, 96, 164, and 288 hours. The HPLC assay conditions are summarized below.

[4] = aqueous cyclodextrin solution, aqueous with cosolvent or surfactant or cyclodextrin, Solubility of steroid, (SBE)5.2 γ-CD 0.1 M
[5] = aqueous cyclodextrin solution, aqueous with cosolvent or surfactant or cyclodextrin, Solubility of steroid, (SBE)6.1 γ-CD 0.04 M
[6] = aqueous cyclodextrin solution, aqueous with cosolvent or surfactant or cyclodextrin, Solubility of steroid, (SBE)6.1 γ-CD 0.08 M
[7] = aqueous cyclodextrin solution, aqueous with cosolvent or surfactant or cyclodextrin, Solubility of steroid, (SBE)6.7 β-CD 0.0465 M
[8] = aqueous cyclodextrin solution, aqueous with cosolvent or surfactant or cyclodextrin, Solubility of steroid, (SBE)6.7 β-CD 0.0950 M
[9] = aqueous cyclodextrin solution, aqueous with cosolvent or surfactant or cyclodextrin, Solubility of steroid, (SBE)7 α-CD 0.04 M
[10] = aqueous cyclodextrin solution, aqueous with cosolvent or surfactant or cyclodextrin, Solubility of steroid, (SBE)7 α-CD 0.08 M
[11] = aqueous cyclodextrin solution, aqueous with cosolvent or surfactant or cyclodextrin, Solubility of steroid, (SBE)9.7 γ-CD […]
[12] = aqueous cyclodextrin solution, aqueous with cosolvent or surfactant or cyclodextrin, Solubility of steroid, (SPE)5.4 γ-CD 0.08 M
[13] = aqueous cyclodextrin solution, aqueous with cosolvent or surfactant or cyclodextrin, Solubility of steroid, (SPE)7 β-CD 0.04 M
[14] = aqueous cyclodextrin solution, aqueous with cosolvent or surfactant or cyclodextrin, Solubility of steroid, (SPE)7 β-CD 0.08 M
[15] = aqueous cyclodextrin solution, aqueous with cosolvent or surfactant or cyclodextrin, Solubility of steroid, α-CD 0.08 M
[16] = aqueous cyclodextrin solution, aqueous with cosolvent or surfactant or cyclodextrin, Solubility of steroid, β-CD 0.015M
[17] = aqueous cyclodextrin solution, aqueous with cosolvent or surfactant or cyclodextrin, Solubility of steroid, γ-CD 0.035 M
[18] = aqueous cyclodextrin solution, aqueous with cosolvent or surfactant or cyclodextrin, Solubility of steroid, γ-CD 0.1 M

Row | solubility [2, 4] [µM] | solubility [2, 5] [µM] | solubility [2, 6] [µM] | solubility [2, 7] [µM] | solubility [2, 8] [µM] | solubility [2, 9] [µM] | solubility [2, 10] [µM] | solubility [2, 11] [µM] | solubility [2, 12] [µM] | solubility [2, 13] [µM] | solubility [2, 14] [µM] | solubility [2, 15] [µM] | solubility [2, 16] [µM] | solubility [2, 17] [µM] | solubility [2, 18] [µM] | SMILES | Approximate Molar Ratio at Saturated Solubility of Corticosteroid (SAE-CD: corticosteroid) ([1]; SAE-β-CD) | Approximate Molar Ratio at Saturated Solubility of Corticosteroid (SAE-CD: corticosteroid) ([1]; SAE-γ-CD) | Approximate Molar Ratio at Saturated Solubility of Corticosteroid (SAE-CD: corticosteroid) ([1]; SAE-α-CD) | other results
1 | – | – | – | – | – | – | – | – | – | – | – | – | – | – | – | CC1(C)O[C@@H]2C[C@H]3[C@@H]4C[C@H](F)C5=CC(=O)C=C[C@]5(C)[C@H]4[C@@H](O)C[C@]3(C)[C@]2(C(=O)CO)O1 [Flunisolide] | ~16 | ~9 | – | solubility (physchem; aqueous with cosolvent or surfactant or cyclodextrin, [Steroid] solubility, (SBE)6.1 γ-CD (0.04 M)): 4550 µM (≈ 1980 µg/mL); solubility (physchem; aqueous with cosolvent or surfactant or cyclodextrin, [Steroid] solubility, Captisol (0.04 M)): 2620 µM (≈ 1140 µg/mL); solubility (physchem; water, [Steroid] Intrinsic Solubility (in H2O)): 113 µM (≈ 49.1 µg/mL)
2 | 939 | 415 | 929 | 164 | 311 | 301 | 355 | 940 | 513 | 72.3 | 108 | 2.7 | 13.6 | 141 | 658 | C[C@@H]1C[C@H]2[C@@H]3CCC4=CC(=O)C=C[C@]4(C)[C@@]3(Cl)[C@@H](O)C[C@]2(C)[C@@]1(OC(=O)c1ccco1)C(=O)CCl [Mometasone furoate, mometasone furoate] | ~274 | ~101 | ~141 | solubility ([2]; aqueous cyclodextrin solution, aqueous with cosolvent or surfactant or cyclodextrin, Solubility of steroid, (SPE)5.4 γ-CD 0.04 M): 287 µM; solubility ([2]; aqueous cyclodextrin solution, aqueous with cosolvent or surfactant or cyclodextrin, [Steroid] solubility, (SBE)6.1 γ-CD (0.04 M)): 415 µM; solubility ([2]; aqueous cyclodextrin solution, aqueous with cosolvent or surfactant or cyclodextrin, [Steroid] solubility, Captisol (0.04 M)): 164 µM; solubility ([2]; water, Solubility of steroid, H2O, no CD): 18.2 µM; solubility ([2]; water, [Steroid] Intrinsic Solubility (in H2O), in H2O): 18.2 µM
3 | – | – | – | – | – | – | – | – | – | – | – | – | – | – | – | CCC[C@H]1O[C@@H]2C[C@H]3[C@@H]4CCC5=CC(=O)C=C[C@]5(C)[C@H]4[C@@H](O)C[C@]3(C)[C@]2(C(=O)CO)O1 (single isomer, unassigned) [S-isomer] | – | – | – | With/without CAPTISOL ratio of rate constants ([3]; pH 4, 60° C.): 0.323; With/without CAPTISOL ratio of rate constants ([3]; pH 4, 80° C.): 0.491; Pseudo 1st Order Rate constant ([3]; pH 4 no CAPTISOL, 60° C.): 0.0037 h⁻¹; Pseudo 1st Order Rate constant ([3]; pH 4 no CAPTISOL, 80° C.): 0.00131 h⁻¹; Pseudo 1st Order Rate constant ([3]; pH 4 w/ CAPTISOL, 60° C.): 0.00012 h⁻¹; Pseudo 1st Order Rate constant ([3]; pH 4 w/ CAPTISOL, 80° C.): 0.000644 h⁻¹; With/without CAPTISOL ratio of rate constants ([3]; pH 6, 60° C.): 0.193; With/without CAPTISOL ratio of rate constants ([3]; pH 6, 80° C.): 0.384; Pseudo 1st Order Rate constant ([3]; pH 6 no CAPTISOL, 60° C.): 0.001872 h⁻¹; Pseudo 1st Order Rate constant ([3]; pH 6 no CAPTISOL, 80° C.): 0.00661 h⁻¹; Pseudo 1st Order Rate constant ([3]; pH 6 w/ CAPTISOL, 60° C.): 0.000361 h⁻¹; Pseudo 1st Order Rate constant ([3]; pH 6 w/ CAPTISOL, 80° C.): 0.00254 h⁻¹
4 | 8890 | 8410 | 14200 | 1220 | 2260 | 550 | 1170 | 8900 | 14700 | 1220 | 2230 | 285 | 129 | 27.1 | 0.9 | C[C@@H]1C[C@H]2[C@@H]3CCC4=CC(=O)C=C[C@]4(C)[C@@]3(Cl)[C@@H](O)C[C@]2(C)[C@@]1(O)C(=O)CCl [Mometasone, mometasone] | ~33 | – | ~73 | solubility ([2]; aqueous cyclodextrin solution, aqueous with cosolvent or surfactant or cyclodextrin, Solubility of steroid, α-CD 0.04 M): 84 µM
